pIC50: −log10 of the molar value.
Tests used:
[1] = tested on: HL-60, human proleukemia cells; test: Cell-MTS proliferation assay, HL-60; format: cell-based; conditions: Cell-MTS, 168 hr, class symbols A/B/C
Procedure: (§1) The Cell-MTS assay is a 7-day plate-based colorimetric assay which quantifies the amount of newly generated NADH in the presence or absence of test compound. The NADH level is used for the quantification of cancer cell proliferation.
(§2) Established cancer cell lines with a variety of driving mutations were obtained from American Type Culture Collection (ATCC) and routinely passaged according to ATCC protocols. For routine assay, these cells were seeded at densities which enabled ˜90% confluence after 7 days of culture. Raji, human Burkitts lymphoma cells, (cMYC) were seeded at 15,000 cells per 96-well. HL-60, human proleukemia cells, (NRAS, p16, p53, c-Myc amplified) were seeded at 5,000 cells per 96-well. NCI-H460, human non-small cell lung cancer cells, (KRAS, PIK3CA, STLK11, p16) were seeded at 3,000 cells per 96-well. 24 hr after plating, cells received an 11-point dilution of test compound with final concentration ranges from 100 μM to 2.0 nM. […] At the end of this incubation period, 80 μL of media is removed and 20 μL of CellTiter 96® AQueous Non-Radioactive Cell Proliferation Assay soln (Promega) was added. The cells were incubated until the OD490 was >0.6. IC50 values were calculated using the IDBS XLfit software package and include background subtracted OD490 values and normalization to DMSO controls. Cellular proliferation IC50 values were uploaded and archived using the Chem Biography Platform.

[2] = tested on: Raji, human Burkitts lymphoma cells; test: Cell-MTS proliferation assay, Raji; format: cell-based; conditions: 168 hr
Procedure: as §1, §2

[3] = target: BRD4(BD1) (Homo sapiens (Human), UniProt O60885); test: In vitro enzyme inhibition assay (BRD4 AlphaScreen); format: binding
Outline: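 AlphaScreen proximity readout, using streptavidin donor and Ni-chelate acceptor beads at 5 μg/mL final, monitors biotin-H4 tetraacetylated peptide interaction with purified His-tagged BRD4.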

[4] = Homo sapiens, Raji, Cell-MTS, class symbols A/B/C
[5] = Homo sapiens, Cell-MTS proliferation, Raji cells
[6] = in vitro enzyme inhibition assay

| SMILES | pIC50 ([1]; Homo sapiens, HL-60) | pIC50 [2, 4] | pIC50 ([3]; class symbols A/B/C) | pIC50 [2, 5] | pIC50 [3, 6] | pIC50 [1] | pIC50 ([2]; Cell-MTS, class symbols A/B/C) |
| --- | --- | --- | --- | --- | --- | --- | --- |
| Cn1cc(-c2ccc3c(=O)n(C)cc(-c4cc(NS(C)(=O)=O)c(F)cc4F)c3c2)cn1 [Example 43, N-[2,4-difluoro-5-[2-methyl-6-(1-methylpyrazol-4-yl)-1-oxoisoquinolin-4-yl]phenyl]methane-sulfonamide] | > 6.30 | > 6.30 | > 6.30 | – | – | – | – |
| Cn1cc(-c2cc(S(C)(=O)=O)ccc2OCC2CC2)c2cc(F)ccc2c1=O [Example 90, 4-[2-(cyclopropylmethoxy)-5-methylsulfonylphenyl]-6-fluoro-2-methylisoquinolin-1-one] | > 6.30 | > 6.30 | > 6.30 | – | – | – | – |
| CCS(=O)(=O)Nc1cccc(-c2cn(C)c(=O)c3cnccc23)c1 [Example 52, N-[3-(2-methyl-1-oxo-2,7-naphthyridin-4-yl)phenyl] ethanesulfonamide] | 5.30 to 6.30 | 5.30 to 6.30 | 5.30 to 6.30 | – | – | – | – |
| COc1ccc(-c2cn(C)c(=O)c3ccccc23)cc1S(=O)(=O)NCc1ccccc1 [Example 15, N-benzyl-2-methoxy-5-(2-methyl-1-oxoisoquinolin-4-yl)benzenesulfonamide] | 5.30 to 6.30 | > 6.30 | 5.30 to 6.30 | – | – | – | – |
| Cn1cc(-c2cccc(S(N)(=O)=O)c2)c2cc(F)ccc2c1=O [Example 48, 3-(6-fluoro-2-methyl-1-oxoisoquinolin-4-yl) benzenesulfonamide] | – | – | 5.30 to 6.30 | – | – | 5.30 to 6.30 | 5.30 to 6.30 |
| CCNS(=O)(=O)c1cccc(-c2cn(C)c(=O)c3ccc(F)cc23)c1 [Example 49, N-ethyl-3-(6-fluoro-2-methyl-1-oxoisoquinolin-4-yl) benzenesulfonamide] | – | – | – | – | – | 5.30 to 6.30 | 5.30 to 6.30 |
| CCNS(=O)(=O)c1cccc(-c2cn(C)c(=O)c3cnccc23)c1 [Example 53, N-ethyl-3-(2-methyl-1-oxo-2,7-naphthyridin-4-yl) benzenesulfonamide] | – | – | 5.30 to 6.30 | – | – | < 5.30 | < 5.30 |
| COc1ccc(-c2cn(C)c(=O)c3ccccc23)cc1C(=O)NCc1ccccc1 [Example 18, N-benzyl-2-methoxy-5-(2-methyl-1-oxoisoquinolin-4-yl)benzamide] | 5.30 to 6.30 | 5.30 to 6.30 | 5.30 to 6.30 | – | – | – | – |
| CCNS(=O)(=O)c1cccc(-c2cn(C)c(=O)c3cc(F)ccc23)c1 [Example 59, N-ethyl-3-(7-fluoro-2-methyl-1-oxoisoquinolin-4-yl) benzenesulfonamide] | – | – | 5.30 to 6.30 | – | – | 5.30 to 6.30 | 5.30 to 6.30 |
| Cn1cc(-c2cccc(NS(C)(=O)=O)c2)ccc1=O [Example 94, N-[3-(1-methyl-6-oxopyridin-3-yl)phenyl]methanesulfonamide] | < 5.30 | > 6.30 | 5.30 to 6.30 | – | – | – | – |
| CN(C(=O)OC(C)(C)C)c1cccc(-c2cn(C)c(=O)c3ccccc23)c1 [Example 31, tert-butyl N-methyl-N-[3-(2-methyl-1-oxoisoquinolin-4-yl)phenyl]carbamate] | 5.30 to 6.30 | 5.30 to 6.30 | 5.30 to 6.30 | – | – | – | – |
| CCC1Cc2cc(S(C)(=O)=O)cc(-c3cn(C)c(=O)c4ccccc34)c2O1 (stereo not shown) [Example 494, 4-(2-ethyl-5-methylsulfonyl-2,3-dihydro-1-benzofuran-7-yl)-2-methylisoquinolin-1-one] | – | – | – | 5.30 to 6.30 | > 6.30 | – | – |
| CCS(=O)(=O)Nc1cc2c(c(-c3cc(C)c(=O)n(C)c3)c1)OC(C1CC1)C2 (stereo not shown) [Example 496, N-[2-cyclopropyl-7-(1,5-dimethyl-6-oxopyridin-3-yl)-2,3-dihydro-1-benzofuran-5-yl]ethanesulfonamide] | – | – | – | > 6.30 | > 6.30 | – | – |
| CCCCc1cnc(NS(=O)(=O)CC)nc1-c1cc(C)c(=O)n(C(C)C)c1 [Example 511, N-[5-butyl-4-(5-methyl-6-oxo-1-propan-2-ylpyridin-3-yl)pyrimidin-2-yl] ethanesulfonamide] | – | – | – | > 6.30 | > 6.30 | – | – |

Continued, in another order:

| pIC50 ([1]; Homo sapiens, HL-60) | pIC50 [2, 4] | pIC50 ([3]; class symbols A/B/C) | pIC50 [2, 5] | pIC50 [3, 6] | SMILES | pIC50 [1] | pIC50 ([2]; Cell-MTS, class symbols A/B/C) |
| --- | --- | --- | --- | --- | --- | --- | --- |
| 5.30 to 6.30 | 5.30 to 6.30 | > 6.30 | – | – | Cn1cc(-c2ccc(F)c(NS(C)(=O)=O)c2)c2ccccc2c1=O [Example 37, N-[2-fluoro-5-(2-methyl-1-oxoisoquinolin-4-yl)phenyl] methanesulfonamide] | – | – |
| > 6.30 | > 6.30 | > 6.30 | – | – | Cn1cc(-c2ccc3c(=O)n(C)cc(-c4cc(NS(C)(=O)=O)ccc4F)c3c2)cn1 [Example 41, N-[4-fluoro-3-[2-methyl-6-(1-methylpyrazol-4-yl)-1-oxoisoquinolin-4-yl]phenyl]methanesulfonamide] | – | – |
| > 6.30 | 5.30 to 6.30 | > 6.30 | – | – | Cc1ccc(-c2cn(C)c(=O)c3ccccc23)cc1NS(C)(=O)=O [Example 17, N-[2-methyl-5-(2-methyl-1-oxoisoquinolin-4-yl)phenyl] methanesulfonamide] | – | – |
| > 6.30 | 5.30 to 6.30 | > 6.30 | – | – | Cc1ccc(NS(C)(=O)=O)cc1-c1cn(C)c(=O)c2ccccc12 [Example 39, N-[4-methyl-3-(2-methyl-1-oxoisoquinolin-4-yl)phenyl]methanesulfonamide] | – | – |
| 5.30 to 6.30 | > 6.30 | 5.30 to 6.30 | – | – | Cn1cc(-c2cccc(S(=O)(=O)N3CCCC3)c2)c2ccccc2c1=O [Example 7, 2-methyl-4-(3-pyrrolidin-1-yl-sulfonylphenyl)isoquinolin-1-one] | – | – |
| > 6.30 | 5.30 to 6.30 | > 6.30 | – | – | Cn1cc(-c2cc(NS(C)(=O)=O)ccc2Cl)c2ccccc2c1=O [Example 38, N-[4-chloro-3-(2-methyl-1-oxoisoquinolin-4-yl)phenyl] methanesulfonamide] | – | – |
| > 6.30 | > 6.30 | < 5.30 | – | – | Cn1cc(-c2ccc3c(c2)NC(=O)C3)c2ccccc2c1=O [Example 20, 2-methyl-4-(2-oxo-1,3-dihydroindol-6-yl) isoquinolin-1-one] | – | – |
| > 6.30 | > 6.30 | > 6.30 | – | – | Cn1cc(-c2cc(NS(C)(=O)=O)ccc2F)c2ccccc2c1=O [Example 34, N-[4-fluoro-3-(2-methyl-1-oxoisoquinolin-4-yl)phenyl] methanesulfonamide] | – | – |
| 5.30 to 6.30 | 5.30 to 6.30 | 5.30 to 6.30 | – | – | Cn1cc(-c2cccc(S(=O)(=O)NCCO)c2)c2ccccc2c1=O [Example 22, N-(2-hydroxyethyl)-3-(2-methyl-1-oxoisoquinolin-4-yl)benzenesulfonamide] | – | – |
| > 6.30 | > 6.30 | > 6.30 | – | – | Cn1cc(-c2cccc(NS(C)(=O)=O)c2)c2cc(F)ccc2c1=O [Example 47, N-[3-(6-fluoro-2-methyl-1-oxoisoquinolin-4-yl)phenyl]methanesulfonamide] | – | – |
| > 6.30 | 5.30 to 6.30 | > 6.30 | – | – | COc1ccc(-c2cn(C)c(=O)c3ccccc23)cc1NS(C)(=O)=O [Example 30, N-[2-methoxy-5-(2-methyl-1-oxoisoquinolin-4-yl)phenyl]methanesulfonamide] | – | – |
| 5.30 to 6.30 | 5.30 to 6.30 | 5.30 to 6.30 | – | – | Cn1cc(-c2cc(F)cc(NS(C)(=O)=O)c2)c2ccccc2c1=O [Example 36, N-[3-fluoro-5-(2-methyl-1-oxoisoquinolin-4-yl)phenyl] methanesulfonamide] | – | – |
| 5.30 to 6.30 | 5.30 to 6.30 | 5.30 to 6.30 | – | – | Cn1cc(-c2cc(NS(C)(=O)=O)c(F)cc2F)c2ccccc2c1=O [Example 35, N-[2,4-difluoro-5-(2-methyl-1-oxoisoquinolin-4-yl)phenyl]methanesulfonamide] | – | – |
| 5.30 to 6.30 | < 5.30 | 5.30 to 6.30 | – | – | Cn1cc(-c2cccc(NS(C)(=O)=O)c2)c2ccncc2c1=O [Example 51, N-[3-(2-methyl-1-oxo-2,7-naphthyridin-4-yl)phenyl]methanesulfonamide] | – | – |
| > 6.30 | 5.30 to 6.30 | > 6.30 | – | – | Cn1cc(-c2cccc(NS(C)(=O)=O)c2)c2ccc(F)cc2c1=O [Example 58, N-[3-(7-fluoro-2-methyl-1-oxoisoquinolin-4-yl)phenyl]methanesulfonamide] | – | – |
| > 6.30 | 5.30 to 6.30 | > 6.30 | – | – | CCS(=O)(=O)Nc1cccc(-c2cn(C)c(=O)c3cc(F)ccc23)c1 [Example 62, N-[3-(7-fluoro-2-methyl-1-oxoisoquinolin-4-yl)phenyl]ethanesulfonamide] | – | – |
| 5.30 to 6.30 | 5.30 to 6.30 | – | – | – | Cn1cc(-c2cccc(S(N)(=O)=O)c2)c2ccc(F)cc2c1=O [Example 61, 3-(7-fluoro-2-methhyl-1-oxoisoquinolin-4-yl) benzenesulfonamide] | – | – |
| 5.30 to 6.30 | 5.30 to 6.30 | 5.30 to 6.30 | – | – | Cn1cc(-c2cc(NS(C)(=O)=O)cc(C(F)(F)F)c2)c2ccccc2c1=O [Example 40, N-[3-(2-methyl-1-oxoisoquinolin-4-yl)-5-(trifluoromethyl)phenyl] methanesulfonamide] | – | – |

Source: patent US10023592B2, “Bromodomain inhibitors” (Celgene Quanticel Research, Inc., priority 2013, dated 2018)
